Laboratory results taken from US11358957B2, “Microbiocidal oxadiazole derivatives” (SYNGENTA PARTICIPATIONS AG, priority 2017, dated 2022).

Tests used:
[1] = test system: Puccinia recondita f. Sp. Tritici; assay: Fungicidal activity against Puccinia recondita f. sp. tritici / wheat / leaf disc preventative (brown rust); type: in vivo; settings: foliar, 200 ppm in the applied formulation, wheat leaf segments cv. Kanzler, preventative (inoculated 1 day after application), compared to untreated, read-out: disease control
Outline: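 Segments of wheat cv. Kanzler on water agar were sprayed with compound and inoculated with spores 1 day later. They were kept at 19 °C, 75% rh and 12 h light/12 h dark. Percent disease control versus untreated was scored 7–9 days after application; compounds were tested at 200 ppm.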

[2] = test system: Glomerella lagenarium (Colletotrichum lagenarium); assay: Fungicidal activity against Glomerella lagenarium (Colletotrichum lagenarium) liquid culture / cucumber / preventative (anthracnose); type: cell-based; settings: Colletotrichum orbiculare; 20 ppm in the applied formulation; liquid culture (PDB), inhibition of growth measured photometrically 3 to 4 days after application; compared to untreated; read-out: disease control
Outline: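 Conidia from cryogenic storage mixed into potato dextrose broth and added to compound in DMSO in microtiter plates. Incubated at 24° C.; growth inhibition read photometrically 3 to 4 days after application. Disease control expressed relative to untreated control, with compound at 20 ppm in the applied formulation.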

[3] = test system: Puccinia recondita f. Sp. Tritici; assay: Fungicidal activity against Puccinia recondita f. sp. tritici / wheat / leaf disc curative (brown rust); type: in vivo; settings: foliar, 24 h, 200 ppm in the applied formulation, wheat leaf segments cv. Kanzler, curative (applied 1 day after inoculation), compared to untreated, read-out: disease control
Outline: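 Wheat leaf segments (cv. Kanzler) on agar were inoculated with brown rust spores, kept dark at 19 °C and 75% RH, then sprayed 1 day later with compound (DMSO stock diluted in 0.025% Tween20). Under 12 h light/12 h dark at 19 °C, percent disease control versus untreated was scored 6–8 days after application; 200 ppm applied.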

[4] = test system: Phakopsora pachyrhizi; assay: Fungicidal activity against Phakopsora pachyrhizi / soybean / leaf disc preventative (Asian soybean rust); type: in vivo; settings: foliar, 200 ppm in the applied formulation, soybean leaf disks, compared to untreated, read-out: disease control
Description: Leaf disks or leaf segments of various plant species are cut from plants grown in a greenhouse. The cut leaf disks or segments are placed in multiwell plates (24-well format) onto water agar. The leaf disks are sprayed with a test solution before (preventative) or after (curative) inoculation. Compounds to be tested are prepared as DMSO solutions (max. 10 mg/mL) which are diluted to the appropriate concentration with 0.025% Tween20 just before spraying. The inoculated leaf disks or segments are incubated under defined conditions (temperature, relative humidity, light, etc.) according to the respective test system. A single evaluation of disease level is carried out 3 to 14 days after inoculation, depending on the pathosystem. Percent disease control relative to the untreated check leaf disks or segments is then calculated. Soybean leaf disks are placed on water agar in multiwell plates (24-well format) and sprayed with the formulated test compound diluted in water. One day after application leaf discs are inoculated by spraying a spore suspension on the lower leaf surface. After an incubation period in a climate cabinet of 24-36 hours in darkness at 20° C. and 75% rh leaf disc are kept at 20° C. with 12 h light/day and 75% rh. The activity of a compound is assessed as percent disease control compared to untreated when an appropriate level of disease damage appears in untreated check leaf disks (12 to 14 days after application). The following compounds at 200 ppm in the applied formulation give at least 80% disease control in this test when compared to untreated control leaf disks under the same conditions, which show extensive disease development.

SMILES | melting point [°C] | pest or weed control at 200 ppm [1] [%] | inhibition of growth at 20 ppm [2] [%] | pest or weed control at 200 ppm [3] [%] | pest or weed control at 200 ppm [4] [%]
CNC(=O)c1ncn(Cc2ccc(-c3noc(C(F)(F)F)n3)s2)n1 [Compound 1.49, N-methyl-1-[[5-[5-(trifluoromethyl)-1,2,4-oxadiazol-3-yl]-2-thienyl]methyl]-1,2,4-triazole-3-carboxamide] | 198 to 218 | ≥ 80 | ≥ 80 | ≥ 80 | ≥ 80
CNC(=O)c1ccn(Cc2ccc(-c3noc(C(F)(F)F)n3)s2)n1 [Compound 1.51, N-methyl-1-[[5-[5-(trifluoromethyl)-1,2,4-oxadiazol-3-yl]-2-thienyl]methyl]pyrazole-3-carboxamide] | 124 to 126 | ≥ 80 | ≥ 80 | ≥ 80 | ≥ 80
CNC(=O)c1ccnn1Cc1ccc(-c2noc(C(F)(F)F)n2)s1 [Compound 1.52, N-methyl-2-[[5-[5-(trifluoromethyl)-1,2,4-oxadiazol-3-yl]-2-thienyl]methyl]pyrazole-3-carboxamide] | 148 to 151 | ≥ 80 | ≥ 80 | ≥ 80 | ≥ 80
CONC(=O)c1ccn(Cc2ccc(-c3noc(C(F)(F)F)n3)s2)n1 [Compound 1.56, N-methoxy-1-[[5-[5-(trifluoromethyl)-1,2,4-oxadiazol-3-yl]-2-thienyl]methyl]pyrazole-3-carboxamide] | 134 to 141 | ≥ 80 | ≥ 80 | ≥ 80 | ≥ 80

The next lines start with results.

melting point [°C] | SMILES | pest or weed control at 200 ppm [1] [%] | inhibition of growth at 20 ppm [2] [%] | pest or weed control at 200 ppm [3] [%] | pest or weed control at 200 ppm [4] [%]
90 to 96 | CN(C)C(=O)c1ccn(Cc2ccc(-c3noc(C(F)(F)F)n3)s2)n1 [Compound 1.57, N,N-dimethyl-1-[[5-[5-(trifluoromethyl)-1,2,4-oxadiazol-3-yl]-2-thienyl]methyl]pyrazole-3-carboxamide] | ≥ 80 | ≥ 80 | ≥ 80 | ≥ 80
168 to 178 | CONC(=O)c1ncn(Cc2ccc(-c3noc(C(F)(F)F)n3)s2)n1 [Compound 1.59, N-methoxy-1-[[5-[5-(trifluoromethyl)-1,2,4-oxadiazol-3-yl]-2-thienyl]methyl]-1,2,4-triazole-3-carboxamide] | ≥ 80 | ≥ 80 | ≥ 80 | ≥ 80
105 to 115 | CONC(=O)c1ccnn1Cc1ccc(-c2noc(C(F)(F)F)n2)s1 [Compound 1.60, N-methoxy-2-[[5-[5-(trifluoromethyl)-1,2,4-oxadiazol-3-yl]-2-thienyl]methyl]pyrazole-3-carboxamide] | ≥ 80 | ≥ 80 | ≥ 80 | ≥ 80
